Experiments:
[1] = system: NIH 3T3 cells; test: Foci formation assay, inhibition of PMA induced neoplastic transformation of NIH 3T3 cells; assay type: cell-based
Procedure: (§1) NIH 3T3 cells (American Type Culture Collection, Rockville, Md.) were cultured in DMEM supplemented with 10% FBS inoculated at 10^4 cells/35 […] dish. […] PMA and ibuprofen were dissolved in DMSO and stored in 5% DMSO stock solutions that were diluted a 1000-fold with culture media prior to use. […] The media containing freshly added PMA and ibuprofen were changed every 60 hours for both the foci formation assay and PKCα analysis by Western blot.
Subsequent to washing with a tris/ saline buffer, the cells were stained with a solution of 4% aqueous Giemsa stain in phosphate buffer (pH 7.0). Foci of transformed cells were then visible by eye due to their high local density and verified by under light microscopy.

[2] = system: PKCα; test: PKCα translocation in NIH 3T3 cells (subcellular fractionation, Western blot); assay type: cell-based; details: for PKCα localization: PMA 0.02 μg/ml, 2% FBS
Procedure: as §1
(§2) The cells were washed twice with phosphate-buffered saline (PBS) at 37° C. and subsequently lysed and scraped in 1 ml ice-cold protein lysis buffer (20 mM Tris-HCl, pH7.4, 2 mM EGTA, 2 mM EDTA, […] leupeptin and […] aprotinin) at 4° C. […] Briefly, cells were homogenized 10× in 15 ml glass homogenizer with a tight-fitting pestle and centrifuged at 900×g for 10 min. The resulting supernatant was then centrifuged at 100,000×g for 60 min to produce a nucleus-free membrane fraction (pellet) and a cytosol fraction (supernatant) for Western blots. The 900×g nuclear pellet was suspended in the 2 ml lysis buffer containing 10% sucrose and 0.1% Triton X-100 and washed twice by centrifuging at 1000×g for 10 min, then resuspended in 1 ml of the same buffer without Triton X-100 for Western blots. The purity of the fractions was monitored by light microscopy. […] The samples were stored at -70° C. until analysis.
(§3) 15 μl of human plasma, 15 μl of rat plasma, CSF or 50 μg of rat brain protein were denatured with 35 μl of sample buffer at 95° C. for 4 min. Denatured proteins were separated by 10% SDS-polyacrylamide gel electrophoresis with a 50 μg or 20 μg protein load for each sample for APPs or PKC, respectively, and electrophoretically transferred from gel to nitrocellulose membrane. […] The immunoreactive bands were developed using enhanced chemilumenescence (ECL. Amersham Life Sci., Little Chalfont, UK), following extensive washing with the blocking buffer. The PKC bands were verified in each case by competitively blocking the signal with the peptide corresponding to each of PKCs. The bands were quantitated by scanning densitometry. Quantitative comparisons were made between samples processed simultaneously on one blot.

[3] = system: c-jun expression in NIH 3T3 cells; details: cited from earlier work
[4] = system: APPs; details: 10 mg/kg P.O. bid, 7 days
Procedure: as §2, §3
(§4) Male Sprague-Dawley rats (12 month) were obtained from Harlan-Sprague-Dawley, Inc. (Indianapolis, Ind.) and housed under controlled conditions of temperature humidity and light/dark cycle. […] Rat stomach and duodenum were collected for the quantitation of gastroduodenal lesions. […]

[5] = system: APP; details: 10 mg/kg P.O. bid, 7 days
Procedure: as §2, §3, §4

[6] = Estimated unbound fraction of ibuprofen in culture media; assay type: in vitro ADME
[7] = system: APPs secretion by NIH 3T3 cell lines; details: 50 μM, 20 h
[8] = system: Ht-29; details: cited from earlier work
[9] = system: A-427; details: cited from earlier work
[10] = system: MCF 7/s; details: cited from earlier work
[11] = system: UACC 375; details: cited from earlier work
[12] = system: rat colon cancer; details: carcinogen induced; cited from earlier work
[13] = system: mouse mammary glands cancer; details: carcinogen induced; cited from earlier work
[14] = system: lung and gastric cancer; details: carcinogen induced; cited from earlier work
[15] = cited from earlier work
[16] = system: neutrophil; details: by chemotactic agents; cited from earlier work

CCCCCCCCCCCCCC(=O)O[C@@H]1[C@@H](C)[C@@]2(O)[C@@H](C=C(CO)C[C@]3(O)C(=O)C(C)=C[C@@H]23)[C@@H]2C(C)(C)[C@]12OC(C)=O [PMA, phorbol 12-myristate 13-acetate]
dish area occupied by foci ([1]; PMA 0.02 μg/ml, 2% FBS, 6 weeks): over 50% | PKCα localization ([2]; 2 weeks): translocation from cytosol to membrane fractions, but interestingly translocation to the nuclear compartment was absent | PKCα localization ([2]; 30 min): translocation of PKCα to the membrane fraction and some indication of PKCα appearing in the nuclear fraction | PKCα localization ([2]; 4 hours): clear association of PKCα with the nuclear fraction | PKCα localization ([2]; 18 hours): remained at 18 hours despite its disappearance from the membrane and cytosolic fractions | PKCα localization ([2]; 48 hours): cytosolic PKCα had been regenerated but membrane and nuclear sites were not | PKCα translocation ([2]; reduced media FBS plus PMA 0.02 μg/ml, 4 to 18 hours): significant translocation of PKCα to both nuclear and microsomal membranes | c-jun expression [3]: transiently induces c-jun expression

CC(C)Cc1ccc(C(C)C(=O)O)cc1 (stereo not drawn) [ibuprofen, α-4-(2-methylpropyl) benzeneacetic acid]
effect on NIH 3T3 cell growth patterns without PMA ([1]; DMSO vehicle, no PMA): no effect | content of cytosolic APPs of rat brain (in words) [4]: increased the content of cytosolic APPs | content of membrane APP of rat brain (in words) [5]: decreased content of membrane APP of rat brain, but not significantly | fraction unbound [6]: ~0.05 | APPs secretion (in words) [7]: increased APPs secretion | inhibition of proliferation [8]: inhibits the proliferation | inhibition of proliferation [9]: inhibits the proliferation | inhibition of proliferation [10]: inhibits the proliferation | inhibition of proliferation [11]: inhibits the proliferation | anticancer activity [12]: demonstrated anticancer activity | anticancer activity [13]: demonstrated anticancer activity | anticancer activity [14]: demonstrated anticancer activity | protein binding (in words) [15]: highly protein bound | oral absorption ([15]; suspensions, drops, caplets, chewable tablets): well absorbed orally | blocking of neutrophil activation [16]: blocks neutrophil activation by chemotactic agents but this effect is not enantioselective
